Entries after “also recorded” stand apart in the source; their conditions may differ.
Key:
BALB/c mice = experiment: Neonatal tolerization of BALB/c mice, then autoantibody titers after immunization; assay type: in vivo, mouse; details: BALB/c neonates, 100 μg i.p. twice; immunized 6-7 weeks later with peptide Ia or mAb 5G12
Description: In order to either prevent induction of experimental SLE or to cure mice afflicted with the disease, the following procedures were used: (i) Newborn mice were tolerized with a peptide of the invention (100 μg of the peptide in PBS, intraperitoneally at 24 and 72 hours after birth). Six weeks later, the mice were immunized with the pathogenic autoantibody, e.g. 5G12 (16/6 Id+) and examined for disease manifestations; (ii) A first group of adult mice was injected with various concentrations of the peptides before disease induction with the pathogenic autoantibody or pathogenic T cell line; another group was injected with the peptides to be tested for their therapeutic effect six weeks following immunization at the peak of the serological response; and a further group was treated at 4-6 months post-immunization after the establishment of the overt SLE disease. The number of injections with the peptides was determined based on their effect on the disease induction and progression. The effect of the peptide treatment on T cell proliferation, on the autoantibody production and on the disease manifestations was then evaluated.
In order to further elucidate the role of the peptides in SLE, peptide Ia was utilized for the induction of tolerance in BALB/c mice. Newborn mice were injected twice (at day 1 and 3) with either peptide Ia or a control peptide. […]

[1] = test system: lymph node cells (LNC) of BALB/c and SJL mice; experiment: In vivo inhibition of LNC proliferation responses to the CDR-based peptides; design: species or system mouse; details: LNC of treated mice; not shown
Description: BALB/c (FIG. 5a) and SJL (FIG. 5b) mice were immunized with peptides Ia and IIIa (20 μg/mouse in CFA i.d. in the hind footpads), respectively. The mice were also injected i.v. with 200 μg of the above peptides in PBS either 3 days prior to immunization (open squares), at the immunization day (open circles) or at both dates (open triangles). Ten days later the mice were sacrificed and their lymph nodes were removed and tested for proliferation in the presence of different concentrations of the immunizing peptide. Control groups were of LNC taken from mice that were immunized but not treated (filled squares), or treated with control peptide, p307 (half filled squares). The culture mixtures were incubated for 96 hours in enriched RPMI medium containing 1% normal mouse serum prior to addition of ^3H-thymidine. Sixteen hours later cells were harvested and radioactivity was counted. Results are expressed as mean CPM of triplicates.

[2] = test system: antibodies in sera of SLE patients and healthy controls; experiment: Antibodies in human sera binding coated peptides or mAb 5G12 (ELISA); details: 32 SLE patients in comparison to healthy controls; plates coated 10 μg/ml
Description: Human SLE patients (32 patients) were bled and their sera were tested by ELISA for their ability to bind the peptides Ia, IIa and IIIa, a control peptide p195-212 (a myasthogenic peptide described in PCT publication No. WO 94/00148) or mAb 5G12.
Detection of the antibodies was conducted on plates that were coated with 10 μg/ml of peptides Ia, IIa, IIIa or p195-212 or mAb 5G12, in PBS for 2 hr, washed and blocked with 1% ovalbumin in PBS for an additional 2 hr. ELISA was continued as described after blockage in Example 2 above, using goat anti-human IgG polyclonal antibody conjugated to peroxidase.

[3] = test system: T cell line specific to peptide IIIa of SJL origin; experiment: Proliferation and cytokine secretion of peptide IIIa-specific T cell line; assay type: cell-based, mouse
Description: A further test which can be conducted is to test for the ability of the analogs to inhibit cytokine secretion by the T cell line or by T lymphocytes oh lymph nodes of mice that are high responders to SLE-inducing autoantibodies. The cytokines are detected as follows: IL-1 activity is assessed either by ELISA using a pair of capture and detecting antibodies (as described below for IL-4, IL-6, IL-10) or using the LBRM-33(1A5) assay (Conlon, 1983) in which 1A5 cells are stimulated in the presence of phytohemagglutinin (PHA), with either supernatants or recombinant IL-1 at various concentrations to secrete IL-2. […] Stimulation of the CTLL line by IL-2 is measured after 24 hr by incorporation of ^3[H]-thymidine. IL-2 is directly detected using the IL-2 dependent CTLL line or by ELISA. Levels of IL-4, IL-6, IL-10, INFγ and TNFα in the supernatants are determined by ELISA using antibodies to the various cytokines (Phamingen, San Diego, Calif., USA) according to the manufacturer's instructions.
T cell lines and clones specific to the 16/6 Id were established from immunized lymph node cells as previously described (Axelrod and Mozes, 1986). […] At the end of 48 hours incubation, 0.5 μCi of ^3H-thymidine were added for an additional 18 hours, after which cells were harvested and radioactivity was counted. […]

Substance	anti-DNA and anti-NE autoantibody titers after neonatal tolerization (BALB/c mice)	proliferative responses of the LNC to Con A (specificity) [1]	levels of serum antibodies that bind the coated peptide or mAb [2]	cytokine secretion of T cell line upon stimulation [3]
TGYYMQWVKQSPEKSLEWIG [peptide Ia]	did not produce significant titers of antibodies to either DNA or nuclear extract antigens; also recorded: produced lower levels of anti-DNA and anti-NE antibodies	not inhibited	significantly higher levels of antibodies	–
YYYCARFLWEPYAMDYWGQGS (YYCARFLWEPYAMDYWGQGS) [peptide IIIa, based on the CDR3 region of the VH chain of mAb 5G12]	–	not inhibited	significantly higher levels of antibodies	secreted the Thl-type cytokines, namely, IL-2, IFNγ and TNFα

— patent US6613536B1, “Synthetic peptides and pharmaceutical compositions comprising them for the treatment of systemic lupus erythematosus” (Yeda Research and Development Co. Ltd., priority 1995, dated 2003)
